{
  "source": "the OligoGym collection",
  "note": "HELM strings list units from the 5' end as sugar, base in round brackets, then linkage (d deoxyribose, r ribose, m 2'-O-methyl, p phosphodiester). Strings are as the collection lists them; they lack the last nucleoside at the 3' end of the tested compound. [moe] = 2'-O-(2-methoxyethyl) (MOE); [sp] = phosphorothioate linkage; [m5C] = 5-methylcytosine",
  "data": [
    {"target": "ATXN2", "assay": "mouse, dose not given", "conditions": "ASO", "units": {"3 h FOB score": "score 0-7"}, "values": [
      {"substance": "RNA1{[moe](A)[sp].[moe](G)p.[moe]([m5C])p.[moe](A)p.[moe](T)p.d(G)[sp].d(A)[sp].d(T)[sp].d([m5C])[sp].d(T)[sp].d(T)[sp].d(G)[sp].d(T)[sp].d(G)[sp].d(T)[sp].[moe](A)p.[moe](T)p.[moe](A)[sp].[moe](T)}$$$$ (last 3' nucleoside missing)", "3 h FOB score": 3},
      {"substance": "RNA1{[moe](A)[sp].[moe](G)p.[moe]([m5C])p.[moe](A)p.[moe](T)p.d([m5C])[sp].d(A)[sp].d(T)[sp].d(T)[sp].d(G)[sp].d(G)[sp].d([m5C])[sp].d(G)[sp].d([m5C])[sp].d(A)[sp].[moe](T)p.[moe](G)p.[moe](G)[sp].[moe](G)}$$$$ (last 3' nucleoside missing)", "3 h FOB score": 5},
      {"substance": "RNA1{[moe](A)[sp].[moe](G)p.[moe]([m5C])p.[moe](A)p.[moe]([m5C])p.d(A)[sp].d(T)[sp].d(G)[sp].d(A)[sp].d(T)[sp].d(T)[sp].d(G)[sp].d(T)[sp].d(A)[sp].d(A)[sp].[moe](A)p.[moe]([m5C])p.[moe](T)[sp].[moe](A)}$$$$ (last 3' nucleoside missing)", "3 h FOB score": 6},
      {"substance": "RNA1{[moe](A)[sp].[moe](G)p.[moe]([m5C])p.[moe](T)p.[moe](T)p.[moe](A)p.d(G)[sp].d(A)[sp].d(G)[sp].d(T)[sp].d(T)[sp].d(T)[sp].d(T)[sp].d(T)[sp].d(G)[sp].d([m5C])[sp].[moe]([m5C])p.[moe](T)[sp].[moe](T)}$$$$ (last 3' nucleoside missing)", "3 h FOB score": 5},
      {"substance": "RNA1{[moe](A)[sp].[moe](G)p.[moe]([m5C])p.[moe](T)p.[moe](T)p.d(A)[sp].d(G)[sp].d(A)[sp].d(G)[sp].d(T)[sp].d(T)[sp].d(T)[sp].d(T)[sp].d(T)[sp].d(G)[sp].[moe]([m5C])p.[moe]([m5C])p.[moe](T)[sp].[moe](T)}$$$$ (last 3' nucleoside missing)", "3 h FOB score": 5},
      {"substance": "RNA1{[moe](A)[sp].[moe](G)p.[moe]([m5C])p.[moe](T)p.[moe]([m5C])p.d(A)[sp].d(T)[sp].d([m5C])[sp].d(A)[sp].d(A)[sp].d(G)[sp].d(G)[sp].d(T)[sp].d(A)[sp].d([m5C])[sp].[moe]([m5C])p.[moe](A)p.[moe](G)[sp].[moe](T)}$$$$ (last 3' nucleoside missing)", "3 h FOB score": 4},
      {"substance": "RNA1{[moe](A)[sp].[moe](G)p.[moe]([m5C])p.[moe](T)p.[moe]([m5C])p.d(T)[sp].d(G)[sp].d(T)[sp].d(T)[sp].d([m5C])[sp].d(G)[sp].d(A)[sp].d(T)[sp].d(G)[sp].d([m5C])[sp].[moe](A)p.[moe](G)p.[moe](G)[sp].[moe](A)}$$$$ (last 3' nucleoside missing)", "3 h FOB score": 4},
      {"substance": "RNA1{[moe](A)[sp].[moe](G)p.[moe]([m5C])p.[moe](T)p.d(T)[sp].d(A)[sp].d(G)[sp].d(A)[sp].d(G)[sp].d(T)[sp].d(T)[sp].d(T)[sp].d(T)[sp].d(T)[sp].[moe](G)p.[moe]([m5C])p.[moe]([m5C])p.[moe](T)[sp].[moe](T)}$$$$ (last 3' nucleoside missing)", "3 h FOB score": 4},
      {"substance": "RNA1{[moe](A)[sp].[moe](T)p.[moe](A)p.[moe](A)p.[moe](A)p.d([m5C])[sp].d(T)[sp].d(G)[sp].d(T)[sp].d(T)[sp].d(T)[sp].d(A)[sp].d([m5C])[sp].d(A)[sp].d(T)[sp].[moe]([m5C])p.[moe](T)p.[moe]([m5C])[sp].[moe]([m5C])}$$$$ (last 3' nucleoside missing)", "3 h FOB score": 4},
      {"substance": "RNA1{[moe](A)[sp].[moe](T)p.[moe](A)p.[moe]([m5C])p.[moe](G)p.d([m5C])[sp].d(G)[sp].d(G)[sp].d(T)[sp].d(G)[sp].d(A)[sp].d(A)[sp].d(T)[sp].d(T)[sp].d([m5C])[sp].[moe](T)p.[moe](G)p.[moe](T)[sp].[moe]([m5C])}$$$$ (last 3' nucleoside missing)", "3 h FOB score": 1},
      {"substance": "RNA1{[moe](A)[sp].[moe](T)p.[moe](A)p.[moe]([m5C])p.[moe](T)p.d([m5C])[sp].d(T)[sp].d([m5C])[sp].d([m5C])[sp].d(A)[sp].d(T)[sp].d(T)[sp].d(A)[sp].d(T)[sp].d(T)[sp].[moe](T)p.[moe]([m5C])p.[moe](T)[sp].[moe](T)}$$$$ (last 3' nucleoside missing)", "3 h FOB score": 0},
      {"substance": "RNA1{[moe](A)[sp].[moe](T)p.[moe](G)p.[moe](A)p.[moe](T)p.d([m5C])[sp].d(T)[sp].d(T)[sp].d(G)[sp].d(T)[sp].d(G)[sp].d(T)[sp].d(A)[sp].d(T)[sp].d(A)[sp].[moe](T)p.[moe](A)p.[moe](T)[sp].[moe](T)}$$$$ (last 3' nucleoside missing)", "3 h FOB score": 6},
      {"substance": "RNA1{[moe](A)[sp].[moe](T)p.[moe](G)p.[moe](T)p.[moe](A)p.d(G)[sp].d(T)[sp].d(T)[sp].d(A)[sp].d([m5C])[sp].d(A)[sp].d(T)[sp].d(G)[sp].d(T)[sp].d(A)[sp].[moe](A)p.[moe]([m5C])p.[moe]([m5C])[sp].[moe](A)}$$$$ (last 3' nucleoside missing)", "3 h FOB score": 2},
      {"substance": "RNA1{[moe](A)[sp].[moe](T)p.[moe](G)p.[moe]([m5C])p.[moe](A)p.d(A)[sp].d([m5C])[sp].d(T)[sp].d(T)[sp].d(A)[sp].d(A)[sp].d(T)[sp].d(A)[sp].d(A)[sp].d([m5C])[sp].[moe]([m5C])p.[moe](T)p.[moe](T)[sp].[moe](A)}$$$$ (last 3' nucleoside missing)", "3 h FOB score": 0.25},
      {"substance": "RNA1{[moe](A)[sp].[moe](T)p.[moe](G)p.[moe]([m5C])p.[moe](A)p.d(G)[sp].d(T)[sp].d(A)[sp].d([m5C])[sp].d(A)[sp].d(A)[sp].d([m5C])[sp].d(A)[sp].d(T)[sp].d(T)[sp].[moe]([m5C])p.[moe]([m5C])p.[moe](A)[sp].[moe](T)}$$$$ (last 3' nucleoside missing)", "3 h FOB score": 0},
      {"substance": "RNA1{[moe](A)[sp].[moe](T)p.[moe](G)p.[moe]([m5C])p.[moe](A)p.d([m5C])[sp].d(T)[sp].d(G)[sp].d([m5C])[sp].d(T)[sp].d(T)[sp].d(G)[sp].d([m5C])[sp].d([m5C])[sp].d(T)[sp].[moe](G)p.[moe](G)p.[moe](A)[sp].[moe](G)}$$$$ (last 3' nucleoside missing)", "3 h FOB score": 5},
      {"substance": "RNA1{[moe](A)[sp].[moe](T)p.[moe](G)p.[moe]([m5C])p.[moe](T)p.d(G)[sp].d(G)[sp].d(T)[sp].d(T)[sp].d([m5C])[sp].d([m5C])[sp].d(T)[sp].d(T)[sp].d(A)[sp].d([m5C])[sp].[moe](A)p.[moe](A)p.[moe](T)[sp].[moe](T)}$$$$ (last 3' nucleoside missing)", "3 h FOB score": 0},
      {"substance": "RNA1{[moe](A)[sp].[moe](T)p.[moe](T)p.[moe](T)p.[moe](T)p.d(G)[sp].d(A)[sp].d(A)[sp].d(T)[sp].d(T)[sp].d(A)[sp].d([m5C])[sp].d(A)[sp].d(A)[sp].d(T)[sp].[moe](G)p.[moe]([m5C])p.[moe](G)[sp].[moe](G)}$$$$ (last 3' nucleoside missing)", "3 h FOB score": 0},
      {"substance": "RNA1{[moe](A)[sp].[moe](T)p.[moe](T)p.[moe]([m5C])p.[moe](T)[sp].d(G)[sp].d(T)[sp].d(A)[sp].d([m5C])[sp].d(T)[sp].d(T)[sp].d(T)[sp].d(T)[sp].[moe]([m5C])p.[moe](T)p.[moe]([m5C])[sp].[moe](A)}$$$$ (last 3' nucleoside missing)", "3 h FOB score": 0},
      {"substance": "RNA1{[moe](A)[sp].[moe](T)p.[moe](T)p.[moe]([m5C])p.[moe](T)p.d(G)[sp].d(T)[sp].d(A)[sp].d([m5C])[sp].d(T)[sp].d(T)[sp].d(T)[sp].d(T)[sp].d([m5C])[sp].d(T)[sp].[moe]([m5C])p.[moe](A)p.[moe](T)[sp].[moe](G)}$$$$ (last 3' nucleoside missing)", "3 h FOB score": 1},
      {"substance": "RNA1{[moe](A)[sp].[moe](T)p.[moe]([m5C])p.[moe](A)p.[moe](A)p.d([m5C])[sp].d(T)[sp].d([m5C])[sp].d([m5C])[sp].d(A)[sp].d(A)[sp].d(A)[sp].d(G)[sp].d(G)[sp].d(T)[sp].[moe](A)p.[moe](G)p.[moe]([m5C])[sp].[moe](A)}$$$$ (last 3' nucleoside missing)", "3 h FOB score": 6},
      {"substance": "RNA1{[moe](A)[sp].[moe](T)p.[moe]([m5C])p.[moe](A)p.[moe](G)p.d(T)[sp].d(A)[sp].d(T)[sp].d(T)[sp].d(T)[sp].d(A)[sp].d([m5C])[sp].d(T)[sp].d(A)[sp].d([m5C])[sp].[moe](T)p.[moe](T)p.[moe]([m5C])[sp].[moe](T)}$$$$ (last 3' nucleoside missing)", "3 h FOB score": 2.75},
      {"substance": "RNA1{[moe](A)[sp].[moe](T)p.[moe]([m5C])p.[moe](A)p.[moe](G)p.d(T)[sp].d(T)[sp].d(T)[sp].d(G)[sp].d(T)[sp].d(A)[sp].d(T)[sp].d(G)[sp].d(A)[sp].d([m5C])[sp].[moe]([m5C])p.[moe](A)p.[moe](T)[sp].[moe](A)}$$$$ (last 3' nucleoside missing)", "3 h FOB score": 3},
      {"substance": "RNA1{[moe](A)[sp].[moe](T)p.[moe]([m5C])p.[moe](A)p.[moe](T)[sp].d([m5C])[sp].d(A)[sp].d(T)[sp].d(T)[sp].d(T)[sp].d(T)[sp].d([m5C])[sp].d([m5C])[sp].[moe](A)p.[moe](G)p.[moe](G)[sp].[moe](G)}$$$$ (last 3' nucleoside missing)", "3 h FOB score": 4.5},
      {"substance": "RNA1{[moe](A)[sp].[moe](T)p.[moe]([m5C])p.[moe](T)p.[moe](A)p.d(T)[sp].d(G)[sp].d(A)[sp].d(T)[sp].d(T)[sp].d(T)[sp].d(T)[sp].d([m5C])[sp].d(A)[sp].d(T)[sp].[moe]([m5C])p.[moe](A)p.[moe](G)[sp].[moe](G)}$$$$ (last 3' nucleoside missing)", "3 h FOB score": 0},
      {"substance": "RNA1{[moe](A)[sp].[moe]([m5C])p.[moe](A)p.[moe](G)p.[moe](T)p.d(T)[sp].d(T)[sp].d([m5C])[sp].d(A)[sp].d([m5C])[sp].d(T)[sp].d(A)[sp].d(G)[sp].d(G)[sp].d(T)[sp].[moe](T)p.[moe]([m5C])p.[moe](T)[sp].[moe]([m5C])}$$$$ (last 3' nucleoside missing)", "3 h FOB score": 3.25},
      {"substance": "RNA1{[moe](A)[sp].[moe]([m5C])p.[moe](A)p.[moe](T)p.[moe](A)p.d(G)[sp].d(G)[sp].d(T)[sp].d(T)[sp].d(A)[sp].d(G)[sp].d(A)[sp].d(A)[sp].d(T)[sp].d(T)[sp].[moe](T)p.[moe](T)p.[moe]([m5C])[sp].[moe]([m5C])}$$$$ (last 3' nucleoside missing)", "3 h FOB score": 1}
    ]}
  ]
}
